Where “and” joins values, the source holds several entries; their conditions need not be identical. Equal entries are not always repeated. Inconclusive results and toxic doses are left out. No stated cut-off is given here; in the data, active means T/C of 150% or more; inactive means T/C below 125%.
Test system: L1210 leukemia ip in BDF1 mice, survival T/C
Test: NCI In Vivo Anticancer Drug Screen. Data for tumor model L1210 Leukemia (intraperitoneal) in B6D2F1 (BDF1) mice
Conditions: higher = longer survival
Method in brief: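 Ratio derived from survival: compound-dosed mice over vehicle-dosed mice, all bearing a transplantable tumor.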

[1] = endpoint: mean survival time, dose: 25.0 mg/kg/injection, schedule: Q01DX009 (ip), vehicle: saline with Tween-80
[2] = endpoint: mean survival time, dose: 50.0 mg/kg/injection, schedule: Q01DX009 (ip), vehicle: saline with Tween-80
[3] = endpoint: mean survival time, dose: 100.0 mg/kg/injection, schedule: Q04DX003 (ip), vehicle: saline with Tween-80
[4] = endpoint: mean survival time, dose: 200.0 mg/kg/injection, schedule: Q04DX003 (ip), vehicle: saline with Tween-80
[5] = endpoint: mean survival time, dose: 400.0 mg/kg/injection, schedule: Q04DX003 (ip), vehicle: saline with Tween-80

Measured: T/C

Cc1cc(NCCCCCCNc2cc(C)nc3ccc(N)cc23)c2cc(N)ccc2n1
active: endpoint: mean survival time, dose: 18.75 mg/kg/injection, schedule: Q01DX009 (ip), vehicle: saline with Tween-80 152 % of control | endpoint: mean survival time, dose: 37.5 mg/kg/injection, schedule: Q01DX009 (ip), vehicle: saline with Tween-80 176 % of control | endpoint: mean survival time, dose: 37.5 mg/kg/injection, schedule: Q01DX009 (ip), vehicle: saline 164 % of control | endpoint: mean survival time, dose: 75.0 mg/kg/injection, schedule: Q01DX009 (ip), vehicle: acetone 160 % of control | endpoint: mean survival time, dose: 75.0 mg/kg/injection, schedule: Q01DX009 (ip), vehicle: saline with Tween-80 150 % of control | endpoint: mean survival time, dose: 75.0 mg/kg/injection, schedule: Q01DX009 (ip), vehicle: saline 182 % of control | endpoint: mean survival time, dose: 150.0 mg/kg/injection, schedule: Q01DX009 (ip), vehicle: acetone 161 % of control | endpoint: mean survival time, dose: 180.0 mg/kg/injection, schedule: Q04DX003 (ip), vehicle: Klucel (hydroxypropylcellulose) (HPC) 160 % of control | endpoint: mean survival time, dose: 180.0 mg/kg/injection, schedule: Q04DX003 (ip), vehicle: saline with Tween-80 152 % of control | endpoint: mean survival time, dose: 400.0 mg/kg/injection, schedule: Q04DX003 (ip), vehicle: Klucel (hydroxypropylcellulose) (HPC) 172 % of control | endpoint: mean survival time, dose: 600.0 mg/kg/injection, schedule: Q04DX003 (ip), vehicle: Klucel (hydroxypropylcellulose) (HPC) 197 % of control | endpoint: mean survival time, dose: 600.0 mg/kg/injection, schedule: Q04DX003 (ip), vehicle: saline with Tween-80 198 % of control | endpoint: median survival time, dose: 128.0 mg/kg/injection, schedule: Q01DX001 (ip), vehicle: Klucel (hydroxypropylcellulose) (HPC) 153 % of control | endpoint: median survival time, dose: 256.0 mg/kg/injection, schedule: Q01DX001 (ip), vehicle: Klucel (hydroxypropylcellulose) (HPC) 175 % of control | endpoint: median survival time, dose: 512.0 mg/kg/injection, schedule: Q01DX001 (ip), vehicle: Klucel (hydroxypropylcellulose) (HPC) 180 % of control
inactive: endpoint: mean survival time, dose: 4.7 mg/kg/injection, schedule: Q01DX009 (ip), vehicle: saline with Tween-80 117 % of control | endpoint: mean survival time, dose: 16.5 mg/kg/injection, schedule: Q01DX009 (ip), vehicle: saline 118 % of control | endpoint: mean survival time, dose: 150.0 mg/kg/injection, schedule: Q01DX009 (ip), vehicle: saline with Tween-80 102 % of control | endpoint: mean survival time, dose: 266.0 mg/kg/injection, schedule: Q04DX003 (ip), vehicle: saline with Tween-80 111 % of control | endpoint: mean survival time, dose: 300.0 mg/kg/injection, schedule: Q01DX009 (ip), vehicle: saline with Tween-80 94 % of control | endpoint: median survival time, dose: 4.0 mg/kg/injection, schedule: Q01DX001 (ip), vehicle: lactic acid 101 % of control | endpoint: median survival time, dose: 8.0 mg/kg/injection, schedule: Q01DX001 (ip), vehicle: lactic acid 100 % of control | endpoint: median survival time, dose: 16.0 mg/kg/injection, schedule: Q01DX001 (ip), vehicle: lactic acid 103 % of control | endpoint: median survival time, dose: 16.0 mg/kg/injection, schedule: Q01DX001 (oral), vehicle: citric acid 97 % of control | endpoint: median survival time, dose: 16.0 mg/kg/injection, schedule: Q01DX001 (oral), vehicle: lactic acid 100 % of control | endpoint: median survival time, dose: 32.0 mg/kg/injection, schedule: Q01DX001 (ip), vehicle: lactic acid 111 % of control | endpoint: median survival time, dose: 32.0 mg/kg/injection, schedule: Q01DX001 (oral), vehicle: citric acid 103 % of control | endpoint: median survival time, dose: 32.0 mg/kg/injection, schedule: Q01DX001 (oral), vehicle: lactic acid 100 % of control | endpoint: median survival time, dose: 64.0 mg/kg/injection, schedule: Q01DX001 (ip), vehicle: Klucel (hydroxypropylcellulose) (HPC) 120 % of control | endpoint: median survival time, dose: 64.0 mg/kg/injection, schedule: Q01DX001 (oral), vehicle: citric acid 102 % of control | endpoint: median survival time, dose: 64.0 mg/kg/injection, schedule: Q01DX001 (oral), vehicle: lactic acid 103 % of control | endpoint: median survival time, dose: 128.0 mg/kg/injection, schedule: Q01DX001 (oral), vehicle: citric acid 97 % of control | endpoint: median survival time, dose: 128.0 mg/kg/injection, schedule: Q01DX001 (oral), vehicle: lactic acid 95 % of control | endpoint: median survival time, dose: 256.0 mg/kg/injection, schedule: Q01DX001 (oral), vehicle: citric acid 87 % of control | endpoint: median survival time, dose: 256.0 mg/kg/injection, schedule: Q01DX001 (oral), vehicle: lactic acid 94 % of control

CC(CCc1ccccc1)NN (centres undefined)
inactive: endpoint: mean survival time, dose: 3.12 mg/kg/injection, schedule: Q01DX009 (ip), vehicle: saline with Tween-80 98 % of control | endpoint: mean survival time, dose: 6.25 mg/kg/injection, schedule: Q01DX009 (ip), vehicle: saline with Tween-80 96 % of control | endpoint: mean survival time, dose: 12.5 mg/kg/injection, schedule: Q01DX009 (ip), vehicle: saline with Tween-80 90 % of control | [1] 96 % of control | endpoint: mean survival time, dose: 25.0 mg/kg/injection, schedule: Q04DX003 (ip), vehicle: saline 100 % of control | [2] 91 % of control | endpoint: mean survival time, dose: 50.0 mg/kg/injection, schedule: Q04DX003 (ip), vehicle: saline 100 % of control

CC(C)(C)CC(C)(C)c1ccc(OCCOc2ccccc2N)cc1
inactive: [3] 94 % of control | [4] 95 % of control | [5] 97 % of control

CC(=O)NS(=O)(=O)c1ccc(NC(=O)c2ccccc2C(=O)O)cc1
inactive: [2] 102 % of control | endpoint: mean survival time, dose: 100.0 mg/kg/injection, schedule: Q01DX009 (ip), vehicle: saline with Tween-80 100 % of control | [3] 95 % of control | endpoint: mean survival time, dose: 200.0 mg/kg/injection, schedule: Q01DX009 (ip), vehicle: saline with Tween-80 96 % of control | [4] 93 % of control

O=c1cc(C23CC4CC(CC(C4)C2)C3)[nH]c(=S)[nH]1
inactive: endpoint: mean survival time, dose: 100.0 mg/kg/injection, schedule: Q01DX001 (ip), vehicle: saline with Tween-80 92 % of control | endpoint: mean survival time, dose: 200.0 mg/kg/injection, schedule: Q01DX001 (ip), vehicle: saline with Tween-80 108 % of control | endpoint: mean survival time, dose: 400.0 mg/kg/injection, schedule: Q01DX001 (ip), vehicle: saline with Tween-80 94 % of control

COC(=O)C(C(=O)OC)=C(C(=O)OC)C(=O)OC
inactive: [3] 89 % of control | [4] 94 % of control | [5] 93 % of control

CCCCCCCCCCCCC1C(=O)NC(=S)NC1=O
inactive: endpoint: mean survival time, dose: 75.0 mg/kg/injection, schedule: Q01DX001 (ip), vehicle: other 97 % of control and 100 % of control | endpoint: mean survival time, dose: 150.0 mg/kg/injection, schedule: Q01DX001 (ip), vehicle: other 101 % of control and 113 % of control | endpoint: mean survival time, dose: 300.0 mg/kg/injection, schedule: Q01DX001 (ip), vehicle: other 103 % of control

Nc1nc(=S)c2ncn(C3OC(COC(=O)c4ccccc4)C(OC(=O)c4ccccc4)C3OC(=O)c3ccccc3)c2[nH]1 (centres undefined)
active: endpoint: mean survival time, dose: 5.0 mg/kg/injection, schedule: Q01DX009 (ip), vehicle: saline 159 % of control | endpoint: mean survival time, dose: 45.0 mg/kg/injection, schedule: Q01DX009 (ip), vehicle: saline 164 % of control | endpoint: mean survival time, dose: 100.0 mg/kg/injection, schedule: Q01DX Z (ip), vehicle: methylcellulose (MC) 153 % of control
inactive: endpoint: mean survival time, dose: 0.1 mg/kg/injection, schedule: Q01DX009 (ip), vehicle: saline 104 % of control | endpoint: mean survival time, dose: 0.3 mg/kg/injection, schedule: Q01DX009 (ip), vehicle: saline 118 % of control | endpoint: mean survival time, dose: 0.6 mg/kg/injection, schedule: Q01DX009 (ip), vehicle: saline 118 % of control | endpoint: mean survival time, dose: 29.0 mg/kg/injection, schedule: Q01DX Z (ip), vehicle: methylcellulose (MC) 116 % of control | endpoint: mean survival time, dose: 175.0 mg/kg/injection, schedule: Q01DX009 (ip), vehicle: saline 98 % of control | endpoint: mean survival time, dose: 265.0 mg/kg/injection, schedule: Q01DX001 (ip), vehicle: saline 118 % of control | endpoint: mean survival time, dose: 400.0 mg/kg/injection, schedule: Q01DX001 (ip), vehicle: saline 86 % of control

CCN(CC)Cc1nc2nc(Cl)c(Cl)nc2[nH]1
inactive: [1] 97 % of control | [2] 105 % of control | [3] 99 % of control

O=C(CBr)CCS(=O)(=O)c1ccc(Cl)cc1
inactive: endpoint: mean survival time, dose: 5.0 mg/kg/injection, schedule: Q01DX009 (ip), vehicle: saline with Tween-80 102 % of control | endpoint: mean survival time, dose: 5.0 mg/kg/injection, schedule: Q04DX003 (ip), vehicle: saline with Tween-80 101 % of control | endpoint: mean survival time, dose: 10.0 mg/kg/injection, schedule: Q01DX009 (ip), vehicle: saline with Tween-80 104 % of control | endpoint: mean survival time, dose: 10.0 mg/kg/injection, schedule: Q04DX003 (ip), vehicle: saline with Tween-80 103 % of control | endpoint: mean survival time, dose: 20.0 mg/kg/injection, schedule: Q01DX009 (ip), vehicle: saline with Tween-80 97 % of control | endpoint: mean survival time, dose: 20.0 mg/kg/injection, schedule: Q04DX003 (ip), vehicle: saline with Tween-80 97 % of control

CN1C2CCC1CC(NCCN1CC1)C2 (centres undefined)
inactive: endpoint: mean survival time, dose: 100.0 mg/kg/injection, schedule: Q01DX001 (ip), vehicle: saline 107 % of control

c1ccc2c3c(sc2c1)CNCC3
inactive: endpoint: mean survival time, dose: 25.0 mg/kg/injection, schedule: Q01DX009 (ip), vehicle: Klucel (hydroxypropylcellulose) (HPC) 107 % of control | endpoint: mean survival time, dose: 50.0 mg/kg/injection, schedule: Q01DX009 (ip), vehicle: Klucel (hydroxypropylcellulose) (HPC) 101 % of control

O=C(O)C(C=C(Cl)Cl)N1CCCCC1 (centres undefined)
inactive: endpoint: mean survival time, dose: 100.0 mg/kg/injection, schedule: Q04DX003 (ip), vehicle: saline 98 % of control | endpoint: mean survival time, dose: 200.0 mg/kg/injection, schedule: Q04DX003 (ip), vehicle: saline 93 % of control | endpoint: mean survival time, dose: 400.0 mg/kg/injection, schedule: Q04DX003 (ip), vehicle: saline 94 % of control

— PubChem BioAssay AID248 (DTP/NCI, 2004)
